{
  "source": "patent US3939277A",
  "about": "“Insecticidal biodegradable analogues of DDT” (priority 1973, dated 1976)",
  "key": {"[1]": {"system": "multifunction oxidase (MFO) enzymes", "details": "background statement; cited from earlier work"}, "[2]": {"system": "female house flies, Musca domestica, DDT-resistant (Rsp)", "assay": "Topical application to female house flies, DDT-resistant (Rsp) strain", "details": "read-out: topical LD50 female housefly, DDT-resistant", "protocol": "(§1) Compositions of the present invention were tested for insecticidal activities determined by standard methods, and compared with the activities of DDT and other symmetrical analogues of DDT, e.g. methoxychlor. In these tests, female house flies, Musca domestica, under CO2 anesthesia, were treated with topical application of 1 ul drops of w/v solutions of the insecticides in acetone. Three replicates of 20 flies 2-4 days old were treated on the pronotum at each dosage, and at least 5 dosages were used to establish each dosage versus mortality curve. Mortalities were determined by holding the flies at 72° F. (22° C.) with 40% sucrose solution as food. Topical applications were made to both susceptible (SNAIDM) and DDT-resistant (Rsp) strains in exactly the same manner. The results of these evaluations are reported in Table II as LD50 values in ug. of toxicant per gram of insect using the average weight of the house fly as 20 mg. Evaluations of the toxicity of the same compositions to the larvae of the mosquitoes Culex pipiens quinquefasciatus and Anopheles albimanus were made as described by WHO (VBC/1968) and the results are also shown in Table II."}, "[3]": {"details": "background statement; cited from earlier work"}, "[4]": {"system": "female house flies, Musca domestica, susceptible (SNAIDM)", "assay": "Topical application to female house flies, susceptible (SNAIDM) strain", "details": "read-out: topical LD50 female housefly, Susceptible", "protocol": "as §1"}, "[5]": {"system": "larvae of the mosquito Anopheles albimanus", "assay": "Toxicity to mosquito larvae as described by WHO (VBC/1968), Anopheles albimanus", "type": "in vivo"}, "[6]": {"system": "larvae of the mosquito Culex pipiens quinquefasciatus", "assay": "Toxicity to mosquito larvae as described by WHO (VBC/1968), Culex pipiens quinquefasciatus", "type": "in vivo"}, "insects": {"system": "insects", "details": "background statement, cited from earlier work; for insecticidal activity (in words): compared with DDT towards other species of insects; for insecticidal activity (in words), general: toward certain species of insects"}},
  "data": [
    {"molecule": "Clc1ccc(C(c2ccc(Cl)cc2)C(Cl)Cl)cc1", "note": "[DDD, 1,1-dichloro 2,2-bis-(p-chlorophenyl) ethane]", "values": [
      {"measurement": "susceptibility to attack / detoxication by MFO enzymes", "setting": "[1]", "value": "highly resistant to detoxication by MFO enzymes"}
    ]},
    {"molecule": "ClC(Cl)=C(c1ccc(Cl)cc1)c1ccc(Cl)cc1", "note": "[DDE, 1,1-dichloro-2,2-bis-(p-chloro-phyenyl)ethylene]", "values": [
      {"measurement": "susceptibility to attack / detoxication by MFO enzymes", "setting": "[1]", "value": "highly resistant to detoxication by MFO enzymes"}
    ]},
    {"molecule": "Clc1ccc(C(c2ccc(Cl)cc2)C(Cl)(Cl)Cl)cc1", "note": "[DDT, 1,1,1-trichloro-2,2-bis(p-chlorophenyl)ethane, reference compound]", "values": [
      {"measurement": "LD50", "setting": "[2]", "value": 170, "unit": "mg/kg"},
      {"measurement": "susceptibility to attack / detoxication by MFO enzymes", "setting": "[1]", "value": "highly resistant to detoxication by MFO enzymes"},
      {"measurement": "lipid solubility", "setting": "[3]", "value": "high lipid solubility"},
      {"measurement": "water solubility", "setting": "[3]", "value": "very low water solubility"},
      {"measurement": "LD50", "setting": "[4]", "value": 14, "unit": "mg/kg"},
      {"measurement": "LC50", "setting": "[5]", "value": 0.016, "unit": "µg/mL"},
      {"measurement": "LC50", "setting": "[6]", "value": 0.07, "unit": "µg/mL"}
    ]},
    {"molecule": "COc1ccc(C(c2ccc(SC)cc2)C(Cl)(Cl)Cl)cc1", "note": "(stereo not drawn) [Example I, 2-(p-methoxyphenyl)-2-(p-methylthiophenyl)-1,1,1-trichloroethane]", "values": [
      {"measurement": "LD50", "setting": "[2]", "value": 80, "unit": "mg/kg"},
      {"measurement": "LD50", "setting": "[4]", "value": 23.5, "unit": "mg/kg"},
      {"measurement": "LC50", "setting": "[5]", "value": 0.044, "unit": "µg/mL"},
      {"measurement": "LC50", "setting": "[6]", "value": 0.11, "unit": "µg/mL"}
    ]},
    {"molecule": "COc1ccc(C(c2ccc(C)cc2)C(Cl)(Cl)Cl)cc1", "note": "(stereo not drawn) [Example III]", "values": [
      {"measurement": "LD50", "setting": "[2]", "value": 62.5, "unit": "mg/kg"},
      {"measurement": "LD50", "setting": "[4]", "value": 23.5, "unit": "mg/kg"},
      {"measurement": "LC50", "setting": "[5]", "value": 0.12, "unit": "µg/mL"},
      {"measurement": "LC50", "setting": "[6]", "value": 0.085, "unit": "µg/mL"}
    ]},
    {"molecule": "CCOc1ccc(C(c2ccc(SC)cc2)C(Cl)(Cl)Cl)cc1", "note": "(stereo not drawn) [Example II]", "values": [
      {"measurement": "LD50", "setting": "[2]", "value": 85, "unit": "mg/kg"},
      {"measurement": "LD50", "setting": "[4]", "value": 32, "unit": "mg/kg"},
      {"measurement": "LC50", "setting": "[5]", "value": 0.054, "unit": "µg/mL"},
      {"measurement": "LC50", "setting": "[6]", "value": 0.07, "unit": "µg/mL"}
    ]},
    {"molecule": "CCOc1ccc(C(c2ccc(C)cc2)C(Cl)(Cl)Cl)cc1", "note": "(stereo not drawn) [Example IV]", "values": [
      {"measurement": "LD50", "setting": "[2]", "value": 27, "unit": "mg/kg"},
      {"measurement": "LD50", "setting": "[4]", "value": 9, "unit": "mg/kg"},
      {"measurement": "LC50", "setting": "[5]", "value": 0.11, "unit": "µg/mL"},
      {"measurement": "LC50", "setting": "[6]", "value": 0.13, "unit": "µg/mL"}
    ]},
    {"molecule": "CCc1ccc(C(c2ccc(C)cc2)C(Cl)(Cl)Cl)cc1", "note": "(stereo not drawn) [Example VI]", "values": [
      {"measurement": "LD50", "setting": "[2]", "value": 28, "unit": "mg/kg"},
      {"measurement": "LD50", "setting": "[4]", "value": 11, "unit": "mg/kg"},
      {"measurement": "LC50", "setting": "[5]", "value": 0.23, "unit": "µg/mL"},
      {"measurement": "LC50", "setting": "[6]", "value": 0.08, "unit": "µg/mL"}
    ]},
    {"molecule": "CCCOc1ccc(C(c2ccc(C)cc2)C(Cl)(Cl)Cl)cc1", "note": "(stereo not drawn) [Example V]", "values": [
      {"measurement": "LD50", "setting": "[2]", "value": 55, "unit": "mg/kg"},
      {"measurement": "LD50", "setting": "[4]", "value": 20, "unit": "mg/kg"},
      {"measurement": "LC50", "setting": "[5]", "value": 0.2, "unit": "µg/mL"},
      {"measurement": "LC50", "setting": "[6]", "value": 0.04, "unit": "µg/mL"}
    ]},
    {"molecule": "COc1ccc(C(c2ccc(OC)cc2)C(Cl)(Cl)Cl)cc1", "note": "[Methoxychlor, 1,1,1-trichloro-2,2-bis-(pmethoxyphenyl)ethane, reference compound]", "values": [
      {"measurement": "LD50", "setting": "[2]", "value": 48, "unit": "mg/kg"},
      {"measurement": "susceptibility to attack / detoxication by MFO enzymes", "setting": "[1]", "value": "readily attacked by MFO enzymes"},
      {"measurement": "LD50", "setting": "[4]", "value": 45, "unit": "mg/kg"},
      {"measurement": "LC50", "setting": "[5]", "value": 0.18, "unit": "µg/mL"},
      {"measurement": "LC50", "setting": "[6]", "value": 0.067, "unit": "µg/mL"},
      {"measurement": "insecticidal activity (in words)", "setting": "insects", "value": "considerably less insecticidal activity than DDT towards other species of insects"},
      {"measurement": "insecticidal activity (in words), general", "setting": "insects", "value": "satisfactory insecticidal activity toward certain species of insects"}
    ]},
    {"molecule": "CSc1ccc(C(c2ccc(SC)cc2)C(Cl)(Cl)Cl)cc1", "note": "[methiochlor, 1,1,1-trichloro-2,2-bis-(pmethiophenyl)ethane]", "values": [
      {"measurement": "susceptibility to attack / detoxication by MFO enzymes", "setting": "[1]", "value": "readily attacked by MFO enzymes"},
      {"measurement": "insecticidal activity (in words)", "setting": "insects", "value": "considerably less insecticidal activity than DDT towards other species of insects"},
      {"measurement": "insecticidal activity (in words), general", "setting": "insects", "value": "satisfactory insecticidal activity toward certain species of insects"}
    ]},
    {"molecule": "Cc1ccc(C(c2ccc(C)cc2)C(Cl)(Cl)Cl)cc1", "note": "[methylchor, 1,1,1-trichloro-2,2-bis (p methylphenyl)ethane]", "values": [
      {"measurement": "insecticidal activity (in words)", "setting": "insects", "value": "considerably less insecticidal activity than DDT towards other species of insects"},
      {"measurement": "insecticidal activity (in words), general", "setting": "insects", "value": "satisfactory insecticidal activity toward certain species of insects"}
    ]}
  ]
}
